Test results: PubChem BioAssay (NCI)
“And” between values parts separate entries of the source, which are not always exact repeats. Identical values can stand only once.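 Method: 48-hour compound exposure of cells in 96-well plates, five concentrations, linear interpolation of endpoints. GI50 is the concentration that inhibits growth by half. TGI marks complete inhibition of growth.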

Tests used:
Experiment in all cases: DTP human tumour cell line panel, 48 h
[1] = tested on: ACHN renal
[2] = tested on: SNB-19 CNS
[3] = tested on: NCI-H226 lung
[4] = tested on: SK-MEL-5 melanoma
[5] = tested on: OVCAR-8 ovarian
[6] = tested on: MOLT-4 leukemia
[7] = tested on: SF-295 CNS
[8] = tested on: SK-MEL-2 melanoma
[9] = tested on: NCI-H522 lung
[10] = tested on: K-562 leukemia

Row | SMILES | GI50 [1] | TGI [1] | GI50 [2] | TGI [2] [µM] | GI50 [3] | TGI [3] | GI50 [4] | TGI [4] | GI50 [5] | TGI [5] | GI50 [6] | TGI [6] | GI50 [7] | TGI [7] | GI50 [8] [µM] | TGI [8] [µM] | GI50 [9] | GI50 [10] | TGI [10] [µM] | TGI [9] [µM]
1 | CN1CCN(c2ccc(OC(F)(F)F)c(Nc3ncc4c(n3)-c3c(c(C(N)=O)nn3CCO)CC4)c2)CC1 | 0.43 µM and 0.814 µM | 20.2 µM and > 10 µM | 0.0611 µM and 0.0674 µM | > 100 | 4.26 µM and 1.21 µM | 50.4 µM and > 10 µM | 0.106 µM and 0.309 µM | 16.7 µM and > 10 µM | 0.0506 µM and 0.0624 µM | 61.5 µM and > 4.59 µM | 0.0349 µM and 0.0615 µM | 18.5 µM and > 10 µM | 0.0575 µM and 0.244 µM | 18.6 µM and > 10 µM | 0.0543 | > 10 | 0.03 µM and 0.0265 µM | 0.0375 µM and 0.0269 µM | 19.6 | 
2 | Cc1cc(C(=O)Nc2n[nH]c3ccccc23)n[nH]1 | > 100 µM | > 100 µM | > 100 µM | > 100 | > 100 µM | > 100 µM | > 100 µM | > 100 µM | > 100 µM | > 100 µM | > 100 µM | > 100 µM | > 100 µM | > 100 µM | > 100 | > 100 | > 100 µM | > 100 µM | > 100 | > 100
3 | COc1cc(Cl)cc(-c2nn(-c3cccc(NC(=O)Nc4cccc(C(F)(F)F)c4)c3)cc2-c2ccncc2)c1 | 1.72 µM | 16.2 µM | 2.77 µM | 35.9 | 2.26 µM | 11.5 µM | 1.48 µM | 2.84 µM | 1.12 µM | 4.88 µM | 1.14 µM | 4.35 µM | 0.783 µM | 4.62 µM | 1.29 | 3.08 | 0.455 µM | 0.824 µM | 14.4 | 2.51
4 | Cc1ccc(Nc2cc(Cl)c([N+](=O)[O-])cc2[N+](=O)[O-])cc1 | 4.73 µM | 16.2 µM | 6.33 µM | 17.7 | 2.59 µM | 6.81 µM | 3.19 µM | 9.51 µM | 3.37 µM | 13.9 µM | 3.87 µM | > 52.4 µM | 14.4 µM | 34 µM | 3.31 | 8.94 | 0.805 µM | 0.614 µM | > 100 | 2.15
5 | COc1cccc(-c2nn(-c3ccccc3)cc2-c2ccnc(NCCCNC(=O)c3cccc(C(F)(F)F)c3)c2)c1 | 4.08 µM | 18.3 µM | 6.03 µM | 31.2 | 2.24 µM | 10.7 µM | 1.54 µM | 3.34 µM | 4.67 µM | 20.1 µM | 2.63 µM | 9.35 µM | 3.32 µM | 13.9 µM | 7.23 | 23.6 | 2.58 µM | 3.69 µM | 31.3 | 12.2
6 | CCCCCCCCOCC(O)CO (configuration not stated) |  | > 100 µM |  | > 100 |  | > 100 µM |  | > 100 µM |  | > 100 µM |  | > 100 µM |  | > 100 µM |  | > 100 |  |  | > 100 | > 100
7 | Cc1ccc(C(=O)c2sc3nc4c(cc3c2N)CCCC4)c(C)c1 | 0.872 µM | > 100 µM | 4.68 µM | > 100 | 2.67 µM | > 100 µM | 0.32 µM | > 37.9 µM | 0.807 µM | > 100 µM | 0.563 µM | > 100 µM | 0.291 µM | 98.9 µM | 0.429 | > 71.2 | 0.126 µM | 0.0934 µM | > 100 | 
8 | O=c1c2cc(Br)cc(Br)c2nc(CCCl)n1-c1ccc(O)c([N+](=O)[O-])c1 |  | 33.9 µM |  | 38.2 |  | 37.1 µM |  | 35.6 µM |  | 41.6 µM |  | 50.5 µM |  | 45 µM |  | 34.6 |  |  | 61.9 | 23.5
9 | Cc1cccc(C)c1NC(=O)CCc1nnc2s/c(=C\c3ccc(N(C)C)cc3)c(=O)n12 |  | > 100 µM |  | > 100 |  | > 100 µM |  | > 100 µM |  | > 100 µM |  | > 100 µM |  | > 100 µM |  | > 100 |  |  | > 100 | > 100
10 | CCOC(=O)C(=O)Nc1cc(Cl)c(Cl)cc1Cl |  | > 100 µM |  | > 100 |  | > 100 µM |  | > 100 µM |  | > 100 µM |  | > 100 µM |  | > 100 µM |  | > 100 |  |  | > 100 | > 100
11 | N#Cc1ccc(-c2c(-c3ncn[nH]3)sc(N3CCOCC3)c2C#N)c(F)c1 | 0.398 µM |  | 1.96 µM | 38.9 | 1.83 µM | 86.3 µM | 2.29 µM | 13.7 µM | 1.85 µM | > 100 µM | 0.484 µM | 27.6 µM | 0.426 µM | 11.4 µM | 1.92 | 10.7 | 1.17 µM | 5.52 µM | > 100 | 15
12 | CCOC(=O)C1C=C2O[C@@H]3OC4(CCCCC4)O[C@@H]3C2C2C(=O)CCC(=O)[C@@]12C(=O)OC (some centres not stated) |  | > 100 µM |  | > 100 |  | > 100 µM |  | > 100 µM |  | > 100 µM |  | > 100 µM |  | > 100 µM |  | > 100 |  |  | > 100 | > 100
13 | O=C(O)C1CC=CCC1C(=O)Nc1cccc(O)c1 (configuration not stated) |  | > 100 µM |  | > 100 |  | > 100 µM |  | > 100 µM |  | > 100 µM |  | > 100 µM |  | > 100 µM |  | > 100 |  |  | > 100 | > 100
14 | CC(=O)Oc1ccc2c(c1)[C@@]1(C)CCCC(C)(C)[C@@H]1CC2 | 19.1 µM | 33.5 µM | 19.6 µM | 39.4 | 18.5 µM | 37.4 µM | 30.9 µM | 73.6 µM | 18.8 µM | 41.6 µM | 30.9 µM | > 100 µM | 19.1 µM | 56.6 µM | 29.8 | > 100 | 24.2 µM | 40 µM | > 100 | 69.2
